Source: patent US9725442B2, “Heterocyclic derivative having PGD2 receptor antagonist activity” (Shionogi & Co., Ltd., priority 2011, dated 2017)
Read-outs that look alike come from different tables or passages of the source. Values belong to the compound of their own block, whether it stands above or below them.

Key:
CRTH2 [1] = target: T1, CRTH2 (Homo sapiens (Human), UniProt Q9Y5Y4); experiment: CRTH2 receptor binding inhibitory activity ([3H]-PGD2 displacement, membranes of CRTH2-expressing K562 cell); conditions: [3H]-PGD2 displacement, membrane of CRTH2-expressing K562 cell, read-out: Ki
Method in brief: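 Incubation ran 60 min at room temperature using 20 μg/well membrane from CRTH2-expressing K562 cells in pH 7.4 Tris/HCl (50 mM) with 10 mM MgCl2.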

CRTH2 [2] = target: T1, CRTH2; experiment: CRTH2 inhibitory activity in human eosinophil (PGD2 induced eosinophil shape change); format: cell-based; conditions: human peripheral blood, 40 nM PGD2, forward scatter; read-out: IC50, inhibition of PGD2 induced eosinophil shape change
Protocol: CRTH2 inhibitory activity in human eosinophil was determined as inhibitory activity of PGD2 induced eosinophil shape change.
Human peripheral blood was mixed with compounds of the present invention at 37° C. After 5 min, the blood was treated with 40 nM of PGD2 for 10 min and fixed. The blood was hemolyzed and centrifuged. Blood cells were resuspended in PBS and measured forward scatter (FS) using flow cytometer (FACSAria). Inhibition ratio was defined by comparing FS with and without compound, and IC50 for each compound was calculated from inhibitory curve.

Human DP1 receptor = Human DP1 receptor (Homo sapiens (Human), UniProt Q13258); experiment: Human DP1 inhibitory activity in DP1-expressing cell (PGD2-induced cAMP); format: cell-based
Protocol: Compounds were categorized as AA (cAMP is less than 100 nM) and A (cAMP is more than 100 nM and less than 5000 nM) as shown in Table 99 and 100.

CRTH2 [3] = target: T1, CRTH2; experiment: CRTH2 inhibitory activity in CRTH2-expressing cells (PGD2-induced intracellular calcium increase, K562); format: cell-based; conditions: 200 nM PGD2, read-out: IC50, inhibition of intracellular calcium concentration increase induced by PGD2
Protocol: CRTH2 inhibitory activities of compounds were determined as inhibition activity of intra-cellular calcium concentration increase induced by PGD2 in CRTH2-expressing cells.
CRTH2-expressing K562 cells were suspended at concentration of 2×10^6 cells/ml in buffer (10 mM HEPES, pH 7.4, 0.1% Bovine serum albumin). Cells were incubated with […] (4 μM) for 30 min at room temperature. Cells were washed, resuspended and mixed with various concentration of compounds of the present invention. After 2 min, cells were treated with 200 nM of PGD2. Then intracellular calcium concentration was measured using intracellular ion analyzer (FDSS3000). Inhibition ratio was defined by comparing intracellular calcium concentration increase with and without compound, and IC50 for each compound was calculated from inhibitory curve.

DP receptor = DP receptor (Homo sapiens (Human), UniProt Q13258); experiment: DP inhibitory activity in human platelets (PGD2-induced cAMP increase in platelet rich plasma, HTRF); format: cell-based; conditions: IC50 of PGD2 (300 nM)-induced cAMP increase, read-out: PRP
Protocol: Thirty milliliter of blood was drown from healthy human into a syringe preloaded with 1/9 volume of 3.8% citrate sodium. The blood was centrifuged with 180 g for 10 min at room temperature and the upper plasma layer was collected as platelet rich plasma (PRP). The PRP was transferred to plate and treated with 3-isobutyl-1-methylxanthin (IBMX; […]) for 5 min. Then the compounds of the present invention were added to the plate and after 10 min, 300 nM of PGD2 was added. The reaction was stopped with 1 mmol/l hydrogenchlolide after 2 min of PGD2 addition, and platelet was lysed by adding 12% Triton X-100. The concentration of cAMP in the supernatant of the platelet lysate was quantified using homogenous time resolved fluorescence (HTRF). Inhibition ratio was defined by cAMP increase with and without compound, and […] for each compound was calculated from inhibitory curve.

[4] = target: CYP3A4 enzyme expressed in Escherichia coli (Homo sapiens (Human), UniProt P08684); experiment: CYP3A4 fluorescent MBI test; format: in vitro ADME; conditions: pre-reaction time 0 or 30 minutes, substrate 7-BFC; read-out: CYP3A4 MBI, difference between IC50 values with and without preincubation
Protocol: The CYP3A4 fluorescent MBI test is a test of investigating enhancement of CYP3A4 inhibition of a compound by a metabolism reaction, and the test was performed using, as CYP3A4 enzyme expressed in Escherichia coli and employing, as an index, a reaction in which 7-benzyloxytrifluoromethylcoumarin (7-BFC) is debenzylated by the CYP3A4 enzyme to produce a metabolite, 7-hydroxytrifluoromethylcoumarin (HFC) emitting fluorescent light.
The reaction conditions were as follows: substrate, 5.6 μmol/L 7-BFC; pre-reaction time, 0 or 30 minutes; reaction time, 15 minutes; reaction temperature, 25° C. (room temperature); CYP3A4 content (expressed in Escherichia coli), at pre-reaction […], at reaction […] (at 10-fold dilution); concentration of a compound of the present, 0.625, 1.25, 2.5, 5, 10, 20 μmol/L (six points).
An enzyme in a K-Pi buffer (pH 7.4) and a compound solution of the present invention as a pre-reaction mixture were added to a 96-well plate at the composition of the pre-reaction, a part of it was transferred to another 96-well plate so that it was 1/10 diluted by a substrate in a K-Pi buffer, NADPH as a co-factor was added to initiate a reaction as an index (without preincubation) and, after a predetermined time of a reaction, acetonitrile/0.5 mol/L Tris(trishydroxyaminomethane)=4/1 (V/V) was added to stop the reaction. In addition, NADPH was added to a remaining preincubation solution to initiate a preincubation (with preincubation) and, after a predetermined time of a preincubation, a part was transferred to another plate so that it was 1/10 diluted with a substrate and a K-Pi buffer to initiate a reaction as an index. After a predetermined time of a reaction, acetonitrile/0.5 mol/L Tris(trishydroxyaminomethane)=4/1 (V/V) was added to stop the reaction. For the plate on which each index reaction had been performed, a fluorescent value of 7-HFC which is a metabolite was measured with a fluorescent plate reader. (Ex=420 nm, Em=535 nm).

[5] = CRTH2 receptor binding, categorized AAAA/AAA
[6] = category of cAMP IC50, human DP1 receptor expressing Jurkut cell
[7] = IC50 of PGD2 (60 nM)-induced cAMP increase, human DP1 receptor expressing Jurkut cell

Chain of CYP3A4 enzyme expressed in Escherichia coli (P08684 whole entry): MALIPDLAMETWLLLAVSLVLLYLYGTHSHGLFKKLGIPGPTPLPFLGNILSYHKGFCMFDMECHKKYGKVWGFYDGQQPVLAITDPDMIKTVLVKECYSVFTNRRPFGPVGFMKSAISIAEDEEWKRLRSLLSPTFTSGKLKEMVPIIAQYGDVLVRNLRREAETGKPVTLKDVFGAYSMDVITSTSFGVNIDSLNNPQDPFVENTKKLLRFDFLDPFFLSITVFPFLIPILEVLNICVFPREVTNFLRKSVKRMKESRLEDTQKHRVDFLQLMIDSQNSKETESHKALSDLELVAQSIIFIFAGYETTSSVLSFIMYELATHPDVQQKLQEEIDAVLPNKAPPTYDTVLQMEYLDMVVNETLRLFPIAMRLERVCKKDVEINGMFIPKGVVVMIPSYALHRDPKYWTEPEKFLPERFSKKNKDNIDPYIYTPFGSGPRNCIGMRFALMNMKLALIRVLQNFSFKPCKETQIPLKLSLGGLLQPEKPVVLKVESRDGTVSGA
T1 sequence (Q9Y5Y4 whole entry): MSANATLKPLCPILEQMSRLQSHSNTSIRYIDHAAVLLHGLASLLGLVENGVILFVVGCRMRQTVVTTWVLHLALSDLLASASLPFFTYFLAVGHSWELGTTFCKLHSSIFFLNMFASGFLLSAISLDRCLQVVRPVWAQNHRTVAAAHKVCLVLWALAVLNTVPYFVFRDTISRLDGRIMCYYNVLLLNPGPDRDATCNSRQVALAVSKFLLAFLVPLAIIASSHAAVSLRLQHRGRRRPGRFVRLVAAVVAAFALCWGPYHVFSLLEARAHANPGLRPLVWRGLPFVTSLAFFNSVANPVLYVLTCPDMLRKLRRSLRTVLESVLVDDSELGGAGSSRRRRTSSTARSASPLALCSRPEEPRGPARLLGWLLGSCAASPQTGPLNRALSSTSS
Chain of Human DP1 receptor (Q13258 whole entry): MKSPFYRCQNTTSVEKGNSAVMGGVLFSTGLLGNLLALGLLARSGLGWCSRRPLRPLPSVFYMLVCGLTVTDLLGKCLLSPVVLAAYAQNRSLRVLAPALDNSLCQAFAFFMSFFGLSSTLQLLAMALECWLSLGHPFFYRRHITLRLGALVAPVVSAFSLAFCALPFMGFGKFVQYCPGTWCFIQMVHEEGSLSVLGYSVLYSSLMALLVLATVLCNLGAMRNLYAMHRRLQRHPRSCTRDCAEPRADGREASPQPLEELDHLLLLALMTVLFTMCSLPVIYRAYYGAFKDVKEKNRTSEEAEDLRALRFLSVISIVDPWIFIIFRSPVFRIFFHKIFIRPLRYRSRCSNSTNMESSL
Chain of DP receptor (Q13258 whole entry): as above

Compound: CCOc1ccc(S(=O)(=O)N2C[C@@H](C)[C@@H](n3nc(CC(=O)O)c4ccccc43)C2)cc1 [Compound I-97]
IC50 (CRTH2 [3]): 92 nM
Ki (CRTH2 [1]; [5]): < 100 nM
Ki (CRTH2 [1]): 13 nM
IC50 (CRTH2 [2]): 68 nM
IC50 (Human DP1 receptor; [6]): < 100 nM

Compound: CC(C)Oc1ccc(S(=O)(=O)N2C[C@@H](C)[C@H](n3nc(CC(=O)O)c4cc(Br)c(F)cc43)C2)cc1 [Compound I-156]
IC50 (DP receptor): 110 nM
Ki (CRTH2 [1]; [5]): 100 to 5000 nM
IC50 (Human DP1 receptor; [7]): 3 nM
IC50 (Human DP1 receptor; [6]): < 100 nM

Compound: CCOc1ccc(S(=O)(=O)N2C[C@@H](C)[C@@H](n3nc(CC(=O)O)c4cc(C#N)ccc43)C2)cn1 [Compound I-159]
IC50 (DP receptor): 68 nM
Ki (CRTH2 [1]; [5]): 100 to 5000 nM
IC50 (Human DP1 receptor; [7]): 140 nM
IC50 (Human DP1 receptor; [6]): 100 to 5000 nM

Compound: CCOc1ccc(S(=O)(=O)N2C[C@@H](C)[C@@H](n3nc(CC(=O)O)c4c(C)cccc43)C2)cc1 [Compound I-205]
IC50 (DP receptor): 70 nM
Ki (CRTH2 [1]; [5]): 100 to 5000 nM
IC50 (Human DP1 receptor; [7]): 13 nM
IC50 (Human DP1 receptor; [6]): < 100 nM

Compound: CCOc1ccc(S(=O)(=O)N2C[C@@H](C)[C@@H](n3nc(CC(=O)O)c4ccc(N5CCCC5)cc43)C2)cn1 [Compound I-222]
IC50 (DP receptor): 140 nM
Ki (CRTH2 [1]; [5]): 100 to 5000 nM
Ki (CRTH2 [1]): 100 nM
IC50 (Human DP1 receptor; [7]): 95 nM
IC50 (Human DP1 receptor; [6]): < 100 nM

Compound: CCOc1ccc(S(=O)(=O)N2C[C@@H](C)[C@@H](n3nc(C(C)C(=O)O)c4ccccc43)C2)cc1 (stereo partly shown) [Compound I-284]
IC50 (DP receptor): 130 nM
Ki (CRTH2 [1]; [5]): < 100 nM
Ki (CRTH2 [1]): 55 nM
IC50 (Human DP1 receptor; [7]): 50 nM
IC50 (Human DP1 receptor; [6]): < 100 nM

Compound: Cc1c(CC(=O)O)c2ccccc2n1[C@H]1CN(S(=O)(=O)c2ccc(F)cc2)C[C@H]1C [Compound I-287]
Ki (CRTH2 [1]; [5]): < 100 nM
difference in IC50 with vs without preincubation [4]: ≤ 3000 nM
IC50 (Human DP1 receptor; [6]): 100 to 5000 nM

Compound: CCOc1ccc(S(=O)(=O)N2C[C@H](n3nc(CC(=O)O)c4ccccc43)C[C@@H]2C#N)cc1 [Compound I-322]
IC50 (DP receptor): 12 nM
Ki (CRTH2 [1]; [5]): 100 to 5000 nM
Ki (CRTH2 [1]): 270 nM
IC50 (Human DP1 receptor; [7]): 29 nM
IC50 (Human DP1 receptor; [6]): < 100 nM

Compound: CCOc1ccc(S(=O)(=O)N2C[C@@H](C)[C@@H](n3nc(CC(=O)O)c4ccccc43)C2)c(N)c1 [Compound I-325]
IC50 (DP receptor): 210 nM
Ki (CRTH2 [1]; [5]): < 100 nM
Ki (CRTH2 [1]): 28 nM
IC50 (Human DP1 receptor; [7]): 24 nM
IC50 (Human DP1 receptor; [6]): < 100 nM

Compound: CCOc1ccc(S(=O)(=O)N2C[C@@H](C)[C@@H](n3c(C)c(CC(=O)O)c4ccccc43)C2)cc1 [Compound I-329]
Ki (CRTH2 [1]; [5]): < 100 nM
difference in IC50 with vs without preincubation [4]: ≤ 3000 nM
IC50 (Human DP1 receptor; [6]): < 100 nM

Compound: CCOc1ccc(S(=O)(=O)N2C[C@@H](C)[C@@H](n3nc(C4(C(=O)O)CC4)c4ccccc43)C2)cc1 [Compound I-336]
IC50 (DP receptor): 180 nM
Ki (CRTH2 [1]; [5]): 100 to 5000 nM
Ki (CRTH2 [1]): 440 nM
IC50 (Human DP1 receptor; [7]): 35 nM
IC50 (Human DP1 receptor; [6]): < 100 nM

Compound: CCOc1ccc(S(=O)(=O)N2C[C@H](n3nc(CC(=O)O)c4ccccc43)CC23COC3)cc1 [Compound I-353]
IC50 (DP receptor): 37 nM
Ki (CRTH2 [1]; [5]): 100 to 5000 nM
Ki (CRTH2 [1]): 400 nM
IC50 (Human DP1 receptor; [7]): 120 nM
IC50 (Human DP1 receptor; [6]): 100 to 5000 nM

Now from value to compound:

Ki (CRTH2 [1]; [5]): < 100 nM
IC50 (CRTH2 [2]): 13 nM
IC50 (Human DP1 receptor; [6]): < 100 nM
Compound: CC(C)Oc1ccc(S(=O)(=O)N2C[C@H](C)[C@@H](n3nc(CC(=O)O)c4ccc(F)cc43)C2)cc1 [Compound I-31]

IC50 (CRTH2 [3]): 91 nM
IC50 (DP receptor): 120 nM
Ki (CRTH2 [1]; [5]): < 100 nM
Ki (CRTH2 [1]): 4.3 nM
IC50 (CRTH2 [2]): 60 nM
IC50 (Human DP1 receptor; [7]): 31 nM
IC50 (Human DP1 receptor; [6]): < 100 nM
Compound: CC(C)Oc1ccc(S(=O)(=O)N2C[C@@H](C)[C@@H](n3nc(CC(=O)O)c4ccc(F)cc43)C2)cn1 [Compound I-123]

IC50 (CRTH2 [3]): 210 nM
IC50 (DP receptor): 190 nM
Ki (CRTH2 [1]; [5]): < 100 nM
Ki (CRTH2 [1]): 7.4 nM
IC50 (Human DP1 receptor; [7]): 31 nM
IC50 (Human DP1 receptor; [6]): < 100 nM
Compound: CC(C)Oc1ccc(S(=O)(=O)N2C[C@@H](C)[C@@H](n3nc(CC(=O)O)c4ccc(C(F)(F)F)cc43)C2)cn1 [Compound I-131]

IC50 (DP receptor): 41 nM
Ki (CRTH2 [1]; [5]): < 100 nM
Ki (CRTH2 [1]): 99 nM
IC50 (Human DP1 receptor; [7]): 20 nM
IC50 (Human DP1 receptor; [6]): < 100 nM
Compound: CCOc1ccc(S(=O)(=O)N2C[C@@H](C)[C@@H](n3nc(CC(=O)O)c4c(F)cccc43)C2)cc1 [Compound I-150]

IC50 (DP receptor): 55 nM
Ki (CRTH2 [1]; [5]): < 100 nM
Ki (CRTH2 [1]): 12 nM
IC50 (Human DP1 receptor; [7]): 32 nM
IC50 (Human DP1 receptor; [6]): < 100 nM
Compound: CCOc1ncc(S(=O)(=O)N2C[C@@H](C)[C@@H](n3nc(CC(=O)O)c4ccc(F)cc43)C2)s1 [Compound I-166]

IC50 (DP receptor): 44 nM
Ki (CRTH2 [1]; [5]): < 100 nM
Ki (CRTH2 [1]): 15 nM
IC50 (Human DP1 receptor; [7]): 58 nM
IC50 (Human DP1 receptor; [6]): < 100 nM
Compound: CCOc1ccc(S(=O)(=O)N2C[C@@H](C)[C@@H](n3nc(CC(=O)O)c4ccccc43)C2)s1 [Compound I-177]

IC50 (DP receptor): 68 nM
Ki (CRTH2 [1]; [5]): < 100 nM
IC50 (Human DP1 receptor; [7]): 27 nM
IC50 (Human DP1 receptor; [6]): < 100 nM
Compound: CCOc1ccc(S(=O)(=O)N2C[C@@H](C)[C@@H](n3nc(CC(=O)O)c4ccccc43)C2)c(F)c1 [Compound I-245]

Ki (CRTH2 [1]; [5]): < 100 nM
difference in IC50 with vs without preincubation [4]: ≤ 3000 nM
IC50 (Human DP1 receptor; [6]): < 100 nM
Compound: CCOc1ccc(S(=O)(=O)N2C[C@@H](C)[C@@H](n3cc(CC(=O)O)c4ccc(C#N)cc43)C2)cc1 [Compound I-256]
